Patent US8901035B2, “Herbicidal compositions comprising 4-amino-3-chloro-5-fluoro-6-(4-chloro-2-fluoro-3-methoxyphenyl) pyridine-2-carboxylic acid or a derivative thereof and cellulose biosynthesis inhibitor herbicides” (Dow AgroSciences LLC, priority 2012, dated 2014)

Legend:
Assay type in all cases: in vivo
[1] = system: Amaranthus retroflexus L. (AMARE); experiment: Postemergence herbicidal activity of mixtures in cereal crops in the greenhouse
Protocol: (§1) Seeds of the desired test plant species were planted in Sun Gro MetroMix 306 planting mixture, which typically has a pH of 6.0 to 6.8 and an organic matter content of about 30 percent, in plastic pots with a surface area of 103.2 square centimeters (cm^2). When required to ensure good germination and healthy plants, a fungicide treatment and/or other chemical or physical treatment was applied. The plants were grown for 7-36 days in a greenhouse with an approximate 14 hour photoperiod which was maintained at about 18° C. during the day and about 17° C. during the night. Nutrients and water were added on a regular basis and supplemental lighting was provided with overhead metal halide 1000-Watt lamps as necessary. The plants were employed for testing when they reached the second or third true leaf stage.
(§2) Treatments consisted of the benzyl ester of 4-amino-3-chloro-5-fluoro-6-(4-chloro-2-fluoro-3-methoxy-phenyl)pyridine-2-carboxylic acid (Compound A), formulated as an SC, a second cereal herbicide alone and then both in combination.
(§3) Other herbicidal components were applied on an active ingredient basis and included cellulose biosynthesis inhibiting herbicides.
(§4) Measured aliquots of benzyl ester of 4-amino-3-chloro-5-fluoro-6-(4-chloro-2-fluoro-3-methoxy-phenyl)pyridine-2-carboxylic acid (Compound A) were placed in 25 milliliter (mL) glass vials and diluted in a volume of 1.25% (v/v) Agri-Dex® crop oil concentrate to obtain stock solutions. Compound requirements are based upon a 12 mL application volume at a rate of 187 liters per hectare (L/ha). Spray solutions of the second cereal herbicide and experimental compound mixtures were prepared by adding the stock solutions to the appropriate amount of dilution solution to form 12 mL spray solution with active ingredients in two- and three-way combinations. Formulated compounds were applied to the plant material with an overhead Mandel track sprayer equipped with an 8002E nozzle calibrated to deliver 187 L/ha over an application area of 0.503 square meters (m^2) at a spray height of 18 inches (46 cm) above average plant canopy. Control plants were sprayed in the same manner with the solvent blank.
(§5) The treated plants and control plants were placed in a greenhouse as described above and watered by sub-irrigation to prevent wash-off of the test compounds. After 20-22 days, the condition of the test plants as compared with that of the control plants was determined visually and scored on a scale of 0 to 100 percent where 0 corresponds to no injury and 100 corresponds to complete kill.
(§6) Colby's equation was used to determine the herbicidal effects expected from the mixtures (Colby, S. R. 1967. Calculation of the synergistic and antagonistic response of herbicide combinations. Weeds 15:20-22).
(§7) The following equation was used to calculate the expected activity of mixtures containing two active ingredients, A and B: Expected=A+B−(A×B/100)
(§8) A=observed efficacy of active ingredient A at the same concentration as used in the mixture.
(§9) B=observed efficacy of active ingredient B at the same concentration as used in the mixture.

[2] = system: Chenopodium album L. (CHEAL); experiment: as above
Protocol: as §1, §2, §3, §4, §5, §6, §7, §8, §9

[3] = system: Cirsium arvense (L.) Scop. (CIRAR); experiment: as above
Protocol: as §1, §2, §3, §4, §5, §6, §7, §8, §9

[4] = system: Galium aparine L. (GALAP); experiment: as above
Protocol: as §1, §2, §3, §4, §5, §6, §7, §8, §9

[5] = system: Sinapis arvensis L. (SINAR); experiment: as above
Protocol: as §1, §2, §3, §4, §5, §6, §7, §8, §9

[6] = system: Stellaria media (L.) Vill. (STEME); experiment: as above
Protocol: as §1, §2, §3, §4, §5, §6, §7, §8, §9

[7] = system: Ipomoea hederacea (L.) Jacq. (IPOHE); experiment: Pre-emergence soil-applied herbicidal mixtures for weed control (greenhouse)
Text: (§10) Seeds or nutlets of the desired test plant species were planted in a soil matrix prepared by mixing a loam soil (e.g., 32 percent silt, 23 percent clay, and 45 percent sand, with a pH of about 6.5 and an organic matter content of about 1.9 percent) and calcareous grit in an 80 to 20 ratio. The soil matrix was contained in plastic pots with a volume of 1 quart and a surface area of 83.6 square centimeters (cm^2).
(§11) Treatments consisted of the benzyl ester of 4-amino-3-chloro-5-fluoro-6-(4-chloro-2-fluoro-3-methoxy-phenyl)pyridine-2-carboxylic acid (compound A) formulated as an SC (suspension concentrate) and various herbicidal components alone and in combination. Forms of compound A were applied on an acid equivalent basis.
(§12) Other herbicidal components were applied on an acid equivalent or active ingredient basis and included the cellulose biosynthesis inhibiting herbicides, isoxaben formulated as Gallery® 75DF and indaziflam formulated as Specticle® 20WSP.
(§13) Treatment requirements were calculated based upon the rates being tested, the concentration of active ingredient or acid equivalent in the formulation, and a 12 mL application volume at a rate of 187 L/ha.
(§14) For treatments comprised of formulated compounds, measured amounts of compounds were placed individually in 25 mL glass vials and diluted in a volume of 1.25% (v/v) Agri-Dex® crop oil concentrate (COC) to obtain 12× stock solutions. […] Application solutions were prepared by adding an appropriate amount of each stock solution (e.g., 1 mL) and diluted to the appropriate final concentrations with the addition of 10 mL of an aqueous mixture of 1.25% (v/v) COC so that the final spray solutions contained 1.25% (v/v) COC.
(§15) All stock solutions and applications solutions were visually inspected for compound compatibility prior to application. Spray solutions were applied to the soil with an overhead Mandel track sprayer equipped with a 8002E nozzles calibrated to deliver 187 L/ha over an application area of 0.503 m^2 at a spray height of 18 inches (46 cm) above average pot height. Control pots were sprayed in the same manner with the solvent blank.
(§16) The treated and control pots were placed in a greenhouse and top watered as needed. When required to ensure good germination and healthy plants, a fungicide treatment and/or other chemical or physical treatment was applied. The pots were maintained in a greenhouse with an approximate 14 hr. photoperiod which was maintained at about 29° C. during the day and 26° C. during the night. Nutrients (Peters® Excel 15-5-15 5-Ca 2-Mg) were applied in the irrigation solution as needed and water was added on a regular basis. Supplemental lighting was provided with overhead metal halide 1000-Watt lamps as necessary. After approximately 4 weeks, the condition of the test plants as compared with that of the untreated plants was determined visually and scored on a scale of 0 to 100 percent where 0 corresponds to no injury or growth inhibition and 100 corresponds to complete kill.
as §6, §7, §8, §9

[8] = system: Setaria faberi Herrm. (SETFA); experiment: as above
Text: as §10, §11, §12, §13, §14, §15, §16, §6, §7, §8, §9

[9] = system: Xanthium strumarium L. (XANST); experiment: as above
Text: as §10, §11, §12, §13, §14, §15, §16, §6, §7, §8, §9

[10] = Compound A Benzyl Ester 2.5 g ai/ha alone
[11] = Compound A Benzyl Ester 5 g ai/ha alone
[12] = Compound A Benzyl Ester 10 g ai/ha alone
[13] = Compound A Benzyl Ester 16 g ae/ha alone
[14] = Compound A Benzyl Ester 32 g ae/ha alone

**Q.** Which results are given for `COc1c(Cl)ccc(-c2nc(C(=O)OCc3ccccc3)c(Cl)c(N)c2F)c1F` [Compound A Benzyl Ester, benzyl ester of 4-amino-3-chloro-5-fluoro-6-(4-chloro-2-fluoro-3-methoxy-phenyl)pyridine-2-carboxylic acid]?
**A.** Visual Weed Control (%) - 21 DAA AMARE Obs [1, 10]: 20%; Visual Weed Control (%) - 21 DAA AMARE Obs [1, 11]: 38%; Visual Weed Control (%) - 21 DAA CHEAL Obs [2, 10]: 50%; Visual Weed Control (%) - 21 DAA CHEAL Obs [2, 11]: 58%; Visual Weed Control (%) - 21 DAA Obs [3, 11]: 39%; Visual Weed Control (%) - 21 DAA Obs [3, 12]: 60%; Visual Weed Control (%) - 21 DAA Obs [4, 10]: 55%; Visual Weed Control (%) - 21 DAA Obs [4, 11]: 66%; Visual Weed Control (%) - 21 DAA Obs [4, 12]: 77%; Visual Weed Control (%) - 21 DAA SINAR Obs [5, 10]: 70%; Visual Weed Control (%) - 21 DAA SINAR Obs [5, 11]: 73%; Visual Weed Control (%) - 21 DAA Obs [6, 10]: 25%; Visual Weed Control (%) - 21 DAA Obs [6, 11]: 25%; Visual Weed Control (%) - 21 DAA Obs [6, 12]: 27%; Visual Weed Control (%) - 28 DAA IPOHE Obs [7, 13]: 13%; Visual Weed Control (%) - 28 DAA IPOHE Obs [7, 14]: 23%; Visual Weed Control (%) - 27 DAA SETFA Obs [8, 13]: 8%; Visual Weed Control (%) - 27 DAA SETFA Obs [8, 14]: 15%; Visual Weed Control (%) - 28 DAA XANST Obs [9, 13]: 0%; Visual Weed Control (%) - 28 DAA XANST Obs [9, 14]: 5%

**Q.** What does the source list for `CCC(C)(CC)c1cc(NC(=O)c2c(OC)cccc2OC)on1` [Isoxaben, N-[3-(1-ethyl-1-methylpropyl)-5-isoxazolyl]-2,6-dimethoxybenzamide, reference compound]?
**A.** Visual Weed Control (%) - 21 DAA AMARE Obs ([1]; Isoxaben 31.25 g ai/ha alone): 0%; Visual Weed Control (%) - 21 DAA AMARE Obs ([1]; Isoxaben 62.5 g ai/ha alone): 8%; Visual Weed Control (%) - 21 DAA CHEAL Obs ([2]; Isoxaben 31.25 g ai/ha alone): 5%; Visual Weed Control (%) - 21 DAA CHEAL Obs ([2]; Isoxaben 62.5 g ai/ha alone): 5%; Visual Weed Control (%) - 21 DAA Obs ([3]; Isoxaben 31.25 g ai/ha alone): 3%; Visual Weed Control (%) - 21 DAA Obs ([3]; Isoxaben 62.5 g ai/ha alone): 13%; Visual Weed Control (%) - 21 DAA Obs ([3]; Isoxaben 125 g ai/ha alone): 17%; Visual Weed Control (%) - 21 DAA Obs ([4]; Isoxaben 31.25 g ai/ha alone): 0%; Visual Weed Control (%) - 21 DAA Obs ([4]; Isoxaben 62.5 g ai/ha alone): 8%; Visual Weed Control (%) - 21 DAA Obs ([4]; Isoxaben 125 g ai/ha alone): 12%; Visual Weed Control (%) - 21 DAA SINAR Obs ([5]; Isoxaben 31.25 g ai/ha alone): 13%; Visual Weed Control (%) - 21 DAA SINAR Obs ([5]; Isoxaben 62.5 g ai/ha alone): 13%; Visual Weed Control (%) - 21 DAA Obs ([6]; Isoxaben 31.25 g ai/ha alone): 5%; Visual Weed Control (%) - 21 DAA Obs ([6]; Isoxaben 62.5 g ai/ha alone): 5%
